#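 Grown in 96-well plates, cells were treated for 48 hours with each compound at five concentrations. Insufficient inhibition: endpoint recorded as highest concentration tested. GI50 is the concentration that inhibits growth by half.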 The source made the active and inactive calls. No stated cut-off is given here; in the data, active = GI50 up to about 1.1 µM and inactive = higher.
# Key:
# Assay in all cases: NCI-60 cell line screen, 48 h
# ACHN = test system: ACHN
# M14 = test system: M14
# SF-295 = test system: SF-295
# MDA-N = test system: MDA-N
# SK-OV-3 = test system: SK-OV-3
# IGROV-1 = test system: IGROV-1
# DU-145 = test system: DU-145
# Hs-578T = test system: Hs-578T
# RXF 393 = test system: RXF 393
# MDA-MB-231 = test system: MDA-MB-231
# MDA-MB-435 = test system: MDA-MB-435
# A498 = test system: A498
# HCT-15 = test system: HCT-15
# OVCAR-5 = test system: OVCAR-5
# UACC-62 = test system: UACC-62
# HCT-116 = test system: HCT-116
# RPMI-8226 = test system: RPMI-8226
# UO-31 = test system: UO-31
# OVCAR-8 = test system: OVCAR-8
# OVCAR-3 = test system: OVCAR-3
# MCF7 = test system: MCF7
# NCI-H522 = test system: NCI-H522
# U-251 = test system: U-251
# Malme-3M = test system: Malme-3M
# SR = test system: SR
# SK-MEL-2 = test system: SK-MEL-2
# EKVX = test system: EKVX
# 786-0 = test system: 786-0
# CAKI-1 = test system: CAKI-1
# CCRF-CEM = test system: CCRF-CEM
# T47D = test system: T47D
# HT-29 = test system: HT-29
# SK-MEL-28 = test system: SK-MEL-28
# NCI-H23 = test system: NCI-H23
# SF-539 = test system: SF-539
# SNB-75 = test system: SNB-75
# NCI-H460 = test system: NCI-H460
# HL-60 = test system: HL-60
# OVCAR-4 = test system: OVCAR-4
# UACC-257 = test system: UACC-257
# COLO 205 = test system: COLO 205
# PC-3 = test system: PC-3
# SNB-19 = test system: SNB-19
# HCC 2998 = test system: HCC 2998
# NCI/ADR-RES = test system: NCI/ADR-RES
# NCI-H226 = test system: NCI-H226
# KM12 = test system: KM12
# TK-10 = test system: TK-10
# SW-620 = test system: SW-620
# LOX IMVI = test system: LOX IMVI
# SN12C = test system: SN12C
# MOLT-4 = test system: MOLT-4
# SF-268 = test system: SF-268
# HOP-62 = test system: HOP-62
# K562 = test system: K562
# BT-549 = test system: BT-549
# A549 = test system: A549
# SK-MEL-5 = test system: SK-MEL-5
structure (smiles),measurement,setting,value
COC(=O)C1(OC(=O)Sc2ccccc2)CCN(C)CC1,GI50,ACHN,15.7 µM (inactive)
same,GI50,M14,15.5 µM (inactive)
same,GI50,SF-295,25.2 µM (inactive)
same,GI50,MDA-N,17.8 µM (inactive)
same,GI50,SK-OV-3,33.3 µM (inactive)
same,GI50,IGROV-1,4.75 µM (inactive)
same,GI50,DU-145,23.8 µM (inactive)
same,GI50,Hs-578T,21.1 µM (inactive)
same,GI50,RXF 393,14.3 µM (inactive)
same,GI50,MDA-MB-231,16.9 µM (inactive)
same,GI50,MDA-MB-435,13.8 µM (inactive)
same,GI50,A498,21.8 µM (inactive)
same,GI50,HCT-15,34.9 µM
same,GI50,OVCAR-5,35.3 µM (inactive)
same,GI50,UACC-62,21.3 µM (inactive)
same,GI50,HCT-116,14.9 µM (inactive)
same,GI50,RPMI-8226,6.38 µM (inactive)
same,GI50,UO-31,3.79 µM (inactive)
same,GI50,OVCAR-8,16.7 µM (inactive)
same,GI50,OVCAR-3,11 µM (inactive)
same,GI50,MCF7,> 52 µM (inactive)
same,GI50,NCI-H522,16.2 µM (inactive)
same,GI50,U-251,12.1 µM (inactive)
same,GI50,Malme-3M,63.7 µM (inactive)
same,GI50,SR,10.8 µM (inactive)
same,GI50,SK-MEL-2,58.3 µM (inactive)
same,GI50,EKVX,9.1 µM (inactive)
same,GI50,786-0,19 µM (inactive)
same,GI50,CAKI-1,4.95 µM (inactive)
same,GI50,CCRF-CEM,1.84 µM (inactive)
same,GI50,T47D,31.3 µM (inactive)
same,GI50,HT-29,21.4 µM (inactive)
same,GI50,SK-MEL-28,27.9 µM (inactive)
same,GI50,NCI-H23,14.1 µM (inactive)
same,GI50,SF-539,10.8 µM (inactive)
same,GI50,SNB-75,16.8 µM (inactive)
same,GI50,NCI-H460,23.6 µM (inactive)
same,GI50,HL-60,5.96 µM (inactive)
same,GI50,OVCAR-4,23.2 µM (inactive)
same,GI50,UACC-257,20.2 µM (inactive)
same,GI50,COLO 205,9.82 µM (inactive)
same,GI50,PC-3,7.57 µM (inactive)
same,GI50,SNB-19,28.3 µM (inactive)
same,GI50,HCC 2998,28.6 µM (inactive)
same,GI50,NCI/ADR-RES,13.1 µM (inactive)
same,GI50,NCI-H226,13.6 µM (inactive)
same,GI50,KM12,10.9 µM (inactive)
same,GI50,TK-10,41.3 µM (inactive)
same,GI50,SW-620,21.7 µM (inactive)
same,GI50,LOX IMVI,8.07 µM (inactive)
same,GI50,SN12C,3.9 µM (inactive)
same,GI50,MOLT-4,6.68 µM (inactive)
same,GI50,SF-268,18.4 µM (inactive)
same,GI50,HOP-62,32.1 µM (inactive)
same,GI50,K562,22.4 µM (inactive)
same,GI50,BT-549,1.5 µM (inactive)
same,GI50,A549,11.4 µM (inactive)
same,GI50,SK-MEL-5,22.6 µM (inactive)
O=C(NNC(=O)c1ccccc1O)c1ccc(O)cc1,GI50,M14,23.7 µM (inactive)
same,GI50,SF-295,33 µM (inactive)
same,GI50,MDA-N,> 100 µM (inactive)
same,GI50,SK-OV-3,33.4 µM (inactive)
same,GI50,IGROV-1,23.9 µM (inactive)
same,GI50,DU-145,76.7 µM (inactive)
same,GI50,Hs-578T,> 100 µM (inactive)
same,GI50,RXF 393,> 100 µM (inactive)
same,GI50,MDA-MB-231,10.2 µM (inactive)
same,GI50,MDA-MB-435,69.7 µM (inactive)
same,GI50,A498,> 100 µM (inactive)
same,GI50,HCT-15,19.2 µM
same,GI50,OVCAR-5,> 100 µM (inactive)
same,GI50,UACC-62,28.1 µM (inactive)
same,GI50,HCT-116,33.2 µM (inactive)
same,GI50,RPMI-8226,81.5 µM (inactive)
same,GI50,UO-31,42 µM (inactive)
same,GI50,OVCAR-8,21.1 µM (inactive)
same,GI50,OVCAR-3,38.4 µM (inactive)
same,GI50,MCF7,58.9 µM (inactive)
same,GI50,NCI-H522,13.1 µM (inactive)
same,GI50,U-251,> 100 µM (inactive)
same,GI50,Malme-3M,14.5 µM (inactive)
same,GI50,SR,49.1 µM (inactive)
same,GI50,SK-MEL-2,22.5 µM (inactive)
same,GI50,EKVX,38.3 µM (inactive)
same,GI50,786-0,46.8 µM (inactive)
same,GI50,CAKI-1,50.9 µM (inactive)
same,GI50,CCRF-CEM,70.8 µM (inactive)
same,GI50,T47D,> 100 µM (inactive)
same,GI50,HT-29,37.4 µM (inactive)
same,GI50,SK-MEL-28,> 100 µM (inactive)
same,GI50,SF-539,66.7 µM (inactive)
same,GI50,SNB-75,24.4 µM (inactive)
same,GI50,NCI-H460,31.5 µM (inactive)
same,GI50,HL-60,52.8 µM (inactive)
same,GI50,OVCAR-4,91.6 µM (inactive)
same,GI50,UACC-257,89.1 µM (inactive)
same,GI50,COLO 205,47.8 µM (inactive)
same,GI50,PC-3,37.6 µM (inactive)
same,GI50,SNB-19,> 100 µM (inactive)
same,GI50,NCI/ADR-RES,22.1 µM (inactive)
same,GI50,NCI-H226,14.8 µM (inactive)
same,GI50,KM12,45.3 µM (inactive)
same,GI50,TK-10,> 100 µM (inactive)
same,GI50,SW-620,81.3 µM (inactive)
same,GI50,LOX IMVI,31.6 µM (inactive)
same,GI50,SN12C,> 100 µM (inactive)
same,GI50,MOLT-4,36.4 µM (inactive)
same,GI50,SF-268,9.95 µM (inactive)
same,GI50,HOP-62,47.5 µM (inactive)
same,GI50,K562,84.9 µM (inactive)
same,GI50,BT-549,40.6 µM (inactive)
same,GI50,A549,38.8 µM (inactive)
same,GI50,SK-MEL-5,> 100 µM (inactive)

# Reference: ChEMBL document CHEMBL1201862, “PubChem BioAssay data set” (2004)
